In test [1] the test system is Intraocular Pressure. Briefly: Normal Rabbit Model, IOP lowering after topical administration. The settings on record: Oryctolagus cuniculus, read-out: (B) 50uL 1% topical Normal Rabbit %IOP. Type of test: in vivo, New Zealand albino rabbits. The method, then: To determine the IOP reduction efficacy of the anti-glaucoma drugs of the invention in normal albino rabbits the following was done.
New Zealand albino rabbits (12) were acclimatized in restraining boxes for thirty minutes. Alcaine/ saline (1:5) was applied to the rabbit eyes and baseline IOP in mm Hg pressure were measured using an Alcon Laboratory Applanation Phneumatonograph. Then thirty minutes later, the coded test substance versus a coded saline control was administered as a 50 ul drop to one eye, six animals in each group. The treatment effects were measured as a function of time. Mean IOP and mean change in IOP for each hourly reading was recorded.
The effect cited is a peak percentage effect versus the external control test group.

The test system of test [2] is Intraocular Pressure. The test can be described thus: Rhesus Monkey - Laser Model, IOP lowering after topical administration. The settings on record: laser-induced ocular hypertension, peak effect, percentage change in the hypertensioned eye versus the same eye at the same hour the previous day. It counts as in vivo, Rhesus monkeys.
Experimental: A. Rhesus Monkey - Laser Model
Ocular hypertension was produced in adult Rhesus monkeys (4) via an argon laser photocoagulation of trabecular meshwork in the eye. The treated eye (only one is lasered) was allowed to heal and the IOP stabilized after about six weeks. Tests were performed by topical administration of one drop of a 0.5% solution of-the test agent to the Ketamine anesthetized Rhesus monkey's eye. The IOP charge was recorded by an Alcon Applanation Phneumatonograph. The peak effect was recorded as a percentage change in the hypertensioned eye versus the IOP value of the same eye recorded at the same hour the previous day.
[3] abbreviates: 50uL 1% topical to one eye, peak percentage effect versus the external (saline) control group.

Counter-ions that a name gives are not always drawn. Like-named read-outs stand apart in the source and are kept apart here.

On to `CCOC(=O)c1cc(Cl)c(N=C2NCCN2)c(Cl)c1` [3,5-Dichloro-4-(2-imidazolidinylideneamino)-benzoic acid ethyl ester], for which, in the test with Intraocular Pressure [1] (setting [3]), the change in vivo at 1 % is -5.6%.

`OCc1cc(Cl)c(N=C2NCCN2)c(Cl)c1` [3.5-Dichloro-4-(2-imidazolidinylideneamino)-benzenemethanol]: in the test with Intraocular Pressure [1] (setting [3]), the change in vivo at 1 % stood at 0%. Also, the “(A) 50uL 0.5% topical Laser-Monkey %IOP” value in the test on Intraocular Pressure [2] was -17%. Turning to `CN(C)c1cc(Cl)c(N=C2NCCN2)c(Cl)c1` [2,6-Dichloro-N^1-(2-imidazolidinylidene)-N^4, N^4-dimethyl-1,4-benzenediamine Dihydrochloride], in the test on Intraocular Pressure [1] (topical), the change in vivo at 1 % is -10.2%. Take `Clc1cccc(Cl)c1N=C1NCCN1` [2,6-Dichloro-N-2-imidazolidinylidene-benezamine, reference compound]: the change in vivo at 1 % with Intraocular Pressure [1] (setting [3]) was -13.9%. Further, the “(A) 50uL 0.5% topical Laser-Monkey %IOP” value with Intraocular Pressure [2] is reported as -32.0%.

As for `Cl.Cl.Nc1cc(Cl)c(N=C2NCCN2)c(Cl)c1` [2,6-Dichloro-N^1-(2-imidazolidinylidene)-1,4-benzenediamine Dihydrochloride], in the test on Intraocular Pressure [1] (setting [3]), the change in vivo at 1 % is -1.3%. Also, the “(A) 50uL 0.5% topical Laser-Monkey %IOP” value in the test on Intraocular Pressure [2] is on record as -21.0%. Regarding `N#Cc1cc(Cl)c(N=C2NCCN2)c(Cl)c1` [4-Cyano-2,6-dichloro-N-(2-imidazolidinylidene)-benzamine Hydrochloride], in the test on Intraocular Pressure [1] (setting [3]), the change in vivo at 1 % was -2.3%. In the case of `CC(=O)Nc1cc(Cl)c(N=C2NCCN2)c(Cl)c1.Cl` [N-[3,5-Dichloro-4-(2-imidazolidinylideneamino)-phenyl]-acetamide Hydrochloride], in the test with Intraocular Pressure [1] (setting [3]), the change in vivo at 1 % was -19%. Further, in the test with Intraocular Pressure [2], the “(A) 50uL 0.5% topical Laser-Monkey %IOP” value is given as -4.0%. In the case of `O=C(O)c1cc(Cl)c(N=C2NCCN2)c(Cl)c1` [3,5-Dichloro-4-(2-imidazolidinylideneamino)-benzoic acid], in the test on Intraocular Pressure [1] (setting [3]), the change in vivo at 1 % was -4.5%. Regarding `Cl.Oc1cc(Cl)c(N=C2NCCN2)c(Cl)c1` [3,5-Dichloro-4-(2-imidazolidinylideneamino)-phenol Hydrochloride], the change in vivo at 1 % in the test with Intraocular Pressure [1] (topical) is -7.4%. In addition, the “(A) 50uL 0.5% topical Laser-Monkey %IOP” value in the test on Intraocular Pressure [2] is recorded as -23.0%.

As to `Nc1ccc(Cl)c(N=C2NCCN2)c1Cl` [2,6-Dichloro-N^1-(2-imidazolidinylidene)-1,3-benzenediamine hydrochloride], in the test with Intraocular Pressure [1] (topical), the change in vivo at 1 % came out at 0%. In the case of `O=CNc1cc(Cl)c(N=C2NCCN2)c(Cl)c1` [N-[3,5-Dichloro-4-(2-imidazolidinylideneamino) -phenyl]-formamide Free Base], in the test on Intraocular Pressure [1] (setting [3]), the change in vivo at 1 % is -15.6%. Further, the “(A) 50uL 0.5% topical Laser-Monkey %IOP” value in the test on Intraocular Pressure [2] is on record as -26.0%.
